Legend:
[1] = biological target: T1, DPP-IV (Rattus norvegicus, UniProt P14740); experiment: DPP-IV activity, cleavage of luminescent Gly-Pro substrate in bronchial lung lavage fluid; type: biochemical; conditions: aprotinin 1, 2, 3, 4 and 5 TIU/ml
T1 construct: from tissue; host or cells: rat bronchial lung lavage fluid
Protocol: Aprotinin, a naturally occurring serine protease inhibitor, which is known in the art to inhibit protein degradation was added to the samples post collection at 1, 2, 3, 4 and 5 TIU/ml. DPP-IV activity was then measured by detecting the cleavage of a luminescent substrate containing the DPP-IV recognized Gly-Pro sequence. Bronchial lung lavage fluid was incubated with proluminescent substrate for 30 min and cleavage product was detected by luminescence.

[2] = system: Rat pancreatic epithelial (ARIP) cells; experiment: Staurosporine-induced cell death in ARIP cells (Cell Titer-Glo); type: cell-based; conditions: GLP-1 up to 10 nM, 5 μM staurosporine […]
Protocol: Cell viability was evaluated using Cell Titer-Glo™ (Promega, Madison, Wis.).
The formulations were analyzed for their ability to inhibit staurosporine-induced cell death in ARIP cells.
All of the results shown are averages of triplicate runs.

[3] = system: Rat pancreatic epithelial (ARIP) cells; experiment: Apoptosis by FACS analysis using Annexin V staining; type: cell-based; conditions: 15 nM GLP-1, 1 μM staurosporine 4 hrs
From the text: Annexin V staining is a useful tool in detecting apoptotic cells and is well known to those of skill in the art. Binding of Annexin V to the cell membrane, allows for the analysis of changes in […] (PS) asymmetry before morphological changes associated with apoptosis occurred and before membrane integrity is lost.

[4] = system: β-cell mass; experiment: Effect on β-cell mass, cells treated at day 1, 3 and 5; type: cell-based; conditions: cells treated with GLP-1/FDKP versus untreated cells

T1 sequence (P14740 whole entry): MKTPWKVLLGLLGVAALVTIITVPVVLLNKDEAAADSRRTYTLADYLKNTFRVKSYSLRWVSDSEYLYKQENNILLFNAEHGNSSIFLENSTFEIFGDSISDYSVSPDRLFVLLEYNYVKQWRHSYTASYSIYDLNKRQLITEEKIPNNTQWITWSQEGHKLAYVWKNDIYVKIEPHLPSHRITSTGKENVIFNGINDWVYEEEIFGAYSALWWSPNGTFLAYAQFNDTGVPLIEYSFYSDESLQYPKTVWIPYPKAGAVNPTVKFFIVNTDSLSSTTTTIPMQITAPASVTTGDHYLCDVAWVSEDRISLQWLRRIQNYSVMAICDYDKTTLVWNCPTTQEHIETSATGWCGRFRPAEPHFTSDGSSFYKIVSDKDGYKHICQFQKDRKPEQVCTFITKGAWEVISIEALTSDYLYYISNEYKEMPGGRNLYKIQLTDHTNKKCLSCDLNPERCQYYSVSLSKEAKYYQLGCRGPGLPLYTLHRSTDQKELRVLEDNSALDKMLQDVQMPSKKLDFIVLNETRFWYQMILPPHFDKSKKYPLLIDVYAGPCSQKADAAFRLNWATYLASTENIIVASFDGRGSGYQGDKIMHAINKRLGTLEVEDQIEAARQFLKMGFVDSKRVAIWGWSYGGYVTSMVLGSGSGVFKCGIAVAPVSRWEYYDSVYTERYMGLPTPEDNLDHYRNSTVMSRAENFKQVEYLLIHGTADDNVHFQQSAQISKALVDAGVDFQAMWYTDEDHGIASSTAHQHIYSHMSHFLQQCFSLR

| Substance | inhibition of DPP-IV activity [1] | percent of cell death [2] | inhibition of staurosporine induced apoptosis [3] | increase in β-cell mass [4] |
| --- | --- | --- | --- | --- |
| aprotinin | increase in inhibition of DPP-IV activity | – | – | – |
| GLP-1 | – | decrease in the percent of cell death | about 40% | up to 2 fold |

Reference: patent publication US20080260838A1 (priority 2003, published 2008)
